The term EC50 denotes the concentration needed to bring the measured effect to its halfway point.

This experiment deals with human Maxi K channel (BK channel), KCNMA1 (KCa1.1) and beta1 (KCNMB1) subunits (Homo sapiens, UniProt Q12791).
Sequence of human Maxi K channel (BK channel), KCNMA1 (KCa1.1) and beta1 (KCNMB1) subunits (Q12791 1-1178 isoform Q12791-5): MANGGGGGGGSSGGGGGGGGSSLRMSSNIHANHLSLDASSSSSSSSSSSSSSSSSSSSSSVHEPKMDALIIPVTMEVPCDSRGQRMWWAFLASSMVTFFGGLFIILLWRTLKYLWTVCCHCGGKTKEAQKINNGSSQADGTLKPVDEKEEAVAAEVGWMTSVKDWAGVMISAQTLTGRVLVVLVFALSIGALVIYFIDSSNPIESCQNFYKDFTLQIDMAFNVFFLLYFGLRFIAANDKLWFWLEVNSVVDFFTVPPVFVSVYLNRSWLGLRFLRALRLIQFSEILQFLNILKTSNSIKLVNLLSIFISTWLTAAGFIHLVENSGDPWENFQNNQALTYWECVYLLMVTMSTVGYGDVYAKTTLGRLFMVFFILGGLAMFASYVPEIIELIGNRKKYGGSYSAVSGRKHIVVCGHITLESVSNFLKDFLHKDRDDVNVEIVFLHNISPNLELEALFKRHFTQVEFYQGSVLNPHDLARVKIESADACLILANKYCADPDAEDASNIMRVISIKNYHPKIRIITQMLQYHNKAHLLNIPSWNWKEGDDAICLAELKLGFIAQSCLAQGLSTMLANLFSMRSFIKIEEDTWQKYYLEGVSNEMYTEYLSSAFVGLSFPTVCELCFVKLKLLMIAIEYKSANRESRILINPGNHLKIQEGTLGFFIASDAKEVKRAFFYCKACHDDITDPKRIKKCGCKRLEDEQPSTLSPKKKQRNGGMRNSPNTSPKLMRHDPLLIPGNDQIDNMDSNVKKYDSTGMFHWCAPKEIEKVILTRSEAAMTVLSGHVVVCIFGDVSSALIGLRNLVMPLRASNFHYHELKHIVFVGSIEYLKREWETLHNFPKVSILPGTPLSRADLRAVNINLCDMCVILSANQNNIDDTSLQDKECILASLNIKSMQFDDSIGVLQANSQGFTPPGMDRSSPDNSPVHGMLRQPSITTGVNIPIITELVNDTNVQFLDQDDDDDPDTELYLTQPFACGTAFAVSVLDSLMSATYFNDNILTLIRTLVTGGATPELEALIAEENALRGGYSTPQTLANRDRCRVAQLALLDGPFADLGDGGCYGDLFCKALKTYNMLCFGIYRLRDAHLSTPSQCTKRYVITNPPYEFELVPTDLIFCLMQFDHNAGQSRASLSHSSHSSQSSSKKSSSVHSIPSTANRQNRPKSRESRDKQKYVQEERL
Sequence of human Maxi K channel (BK channel), KCNMA1 (KCa1.1) and beta1 (KCNMB1) subunits (Q16558 whole entry partner): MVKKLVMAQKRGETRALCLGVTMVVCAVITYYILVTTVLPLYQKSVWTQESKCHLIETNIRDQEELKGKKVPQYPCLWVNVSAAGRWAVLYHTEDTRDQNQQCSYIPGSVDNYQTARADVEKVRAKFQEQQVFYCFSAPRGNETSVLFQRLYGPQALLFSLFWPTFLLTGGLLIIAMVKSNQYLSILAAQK

Procedure: In Vitro Assay: Agonistic Activity at the Human Maxi K Channel (BK Channel)
A CHO K1 cell line was stably transfected with the KCNMA1 (KCa1.1, U11058) and betal (KCNMB1) subunits of the human Maxi K channel (Ponte et al, Molecular Pharmacology 2012, 81(4), 567-577).
Cells were seeded in microtiter plates (black 384-well MTP, clear bottom) in a concentration of 20,000 cells/well in 25 μl medium and cultured for 20 to 24 hours at 37° C. and 5% CO2. After incubation, 25 μl of FMP-dye Blue-Tyrode's was added to each well and incubated at room temperature for 30 min. Ten minutes after addition of 12.5 μl compound solution, the plates are transferred to the FLIPR for measurement.
For the membrane potential measurements, plates were placed in the FLIPR Penta (Molecular Devices). The baseline measurement of the fluorescence was stared for 20 sec (Exc. 510-545 nm, Emm. 565-625 nm). Potential channel opening measurement was started by addition of 25 μl KCl-Tyrode (final assay concentration of the KCl-Tyrode: 70 mM KCl, 2 mM CaCl2, 1 mM MgCl2, 0.8 mM NaH2PO4, 5 mM Glucose, 28 mM Hepes, pH 7.4, including the voltage sensitive dye). The complete measurement takes 150 s.
EC50 values were determined in triplicate utilizing compound dilution series. The data were determined at least in two independent tests. The data were proceeded by using the ActivityBase XE Runner software (IDBS) for curve fitting and calculation of the half-maximal effective concentration.

Regarding `O=C(NC1CCOc2ccccc21)c1cnc2c(-c3cccc(Cl)c3Cl)csc2c1N1CC(F)(F)C1` (centres unmarked) [Compound 27], the concentration for a half-maximal effect (EC50) was > 30 µM. Next, `Cc1sc2c(N3CCOCC3)c(C(=O)Nc3cccc4ccccc34)cnc2c1-c1cc(Cl)cc(Cl)c1` [Compound 70]: > 30 µM; `Cc1cccc(-c2csc3c(N(C)C)c(C(=O)N[C@H]4CCOc5ccccc54)cnc23)c1C` [Compound 75]: > 30 µM; `O=C(NC1COc2ccccc21)c1cnc2c(-c3cc(Cl)cc(Cl)c3)csc2c1N1CCOCC1` (centres unmarked) [Compound 81]: > 30 µM.

With `O=C(N[C@H]1CCOc2ccccc21)c1cnc2c(-c3cccc(C(F)(F)F)c3)csc2c1N1CCC1` [Compound 90], the EC50 was > 30 µM.

As for `COc1cccc(-c2csc3c(N4CCOCC4)c(C(=O)N[C@H]4CCOc5ccccc54)cnc23)c1` [Compound 43], the EC50 was > 30 µM. The result for `CN(C)c1c(C(=O)N[C@H]2CCCc3ccccc32)cnc2c(-c3cc(Cl)cc(Cl)c3)csc12` [Compound 31] reads > 30 µM. Consider `O=C(NC1COc2ccccc21)c1cnc2c(-c3cccc(Cl)c3Cl)csc2c1N1CCOCC1` (centres unmarked) [Compound 79], for which the EC50 is > 30 µM. Consider `O=C(N[C@H]1CCOc2ccccc21)c1cnc2c(-c3cc(F)cc(F)c3F)csc2c1N1CCOCC1` [Compound 15], for which the EC50 is > 30 µM. For the compound `Cc1sc2c(N3CCOCC3)c(C(=O)Nc3cccc4ccccc34)cnc2c1-c1cccc(Cl)c1Cl` [Compound 74], the EC50 is > 30 µM. As to `CN(C)c1cccc(-c2csc3c(N(C)C)c(C(=O)N[C@H]4CCOc5ccccc54)cnc23)c1` [Compound 98], the EC50 is > 30 µM. For `CN(C)c1c(C(=O)NC2COc3ccccc32)cnc2c(-c3cc(Cl)cc(Cl)c3)csc12` (centres unmarked) [Compound 96], the EC50 was > 30 µM.

Turning to `COc1cccc(-c2csc3c(N(C)C)c(C(=O)N[C@H]4CCOc5ccccc54)cnc23)c1` [Compound 48], the EC50 is > 30 µM. For `O=C(N[C@H]1CCOc2ccccc21)c1cnc2c(-c3cc(Cl)cc(Cl)c3)csc2c1N1CC(F)C1` [Compound 101], the EC50 is > 30 µM. The result for `Cc1sc2c(N3CCOCC3)c(C(=O)N[C@H]3CCc4ccccc43)cnc2c1-c1cc(F)cc(F)c1` [Compound 111] reads > 30 µM. Take `CN1CCN(c2c(C(=O)NC3CCCc4ccccc43)cnc3c(-c4cc(Cl)cc(Cl)c4)csc23)CC1` (centres unmarked) [Compound 30]: the EC50 was > 30 µM. Next, `CN(C)c1c(C(=O)N[C@H]2CCc3ccccc32)cnc2c(-c3cc(F)cc(F)c3F)csc12` [Compound 25]: > 30 µM; `Cc1sc2c(N3CCOCC3)c(C(=O)N[C@H]3CCc4ccccc43)cnc2c1-c1cc(Cl)cc(Cl)c1` [Compound 69]: > 30 µM.

Take `Cc1sc2c(N3CCOCC3)c(C(=O)N[C@H]3CCc4ccccc43)cnc2c1-c1cccc(Cl)c1Cl` [Compound 73]: the EC50 is > 30 µM. Regarding `Cc1sc2c(N(C)C)c(C(=O)N[C@H]3CCOc4ccccc43)cnc2c1-c1cccc(OC(F)(F)F)c1` [Compound 105], the EC50 was > 30 µM. Next, `O=C(N[C@H]1CCc2ccccc21)c1cnc2c(-c3cc(Cl)cc(Cl)c3)csc2c1N1CCOCC1` [Compound 3]: > 30 µM; `CN1CCN(c2c(C(=O)N[C@H]3CCc4ccccc43)cnc3c(-c4cc(Cl)cc(Cl)c4)csc23)CC1` [Compound 29]: > 30 µM; `Cc1sc2c(N3CCOCC3)c(C(=O)N[C@H]3CCCc4ccccc43)cnc2c1-c1cccc(Cl)c1Cl` [Compound 71]: > 30 µM.

With `Cc1sc2c(N(C)C)c(C(=O)N[C@H]3CCOc4ccccc43)cnc2c1-c1cccc(C(F)(F)F)c1` [Compound 104], the EC50 was > 30 µM.

For the compound `Cc1sc2c(N(C)C)c(C(=O)N[C@H]3CCCc4ccccc43)cnc2c1-c1cccc(Cl)c1Cl` [Compound 35], the EC50 is > 30 µM. On to `O=C(N[C@H]1CCOc2ccccc21)c1cnc2c(-c3cccc(F)c3F)csc2c1N1CCC1` [Compound 85], for which the EC50 was > 30 µM. The result for `O=C(N[C@H]1CCc2ccccc21)c1cnc2c(-c3cccc(Cl)c3Cl)csc2c1N1CC(F)C1` [Compound 99] reads > 30 µM; that for `CN(C)c1c(C(=O)Nc2cccc3ccccc23)cnc2c(-c3cccc(Cl)c3Cl)csc12` [Compound 22], > 30 µM. As to `CN(C)c1c(C(=O)N[C@H]2CCOc3ccccc32)cnc2c(-c3cc(Cl)cc(Cl)c3)csc12` [Compound 7], the EC50 is > 30 µM. The result for `Cc1sc2c(N(C)C)c(C(=O)N[C@H]3CCc4ccccc43)cnc2c1-c1cc(Cl)cc(Cl)c1` [Compound 33] reads > 30 µM. Turning to `O=C(N[C@H]1CCOc2ccccc21)c1cnc2c(-c3cc(F)cc(F)c3F)csc2c1N1CCC1` [Compound 84], the 50% effective concentration (EC50) was > 30 µM. Next, `O=C(N[C@H]1CCc2ccccc21)c1cnc2c(-c3cc(F)cc(F)c3F)csc2c1N1CC(F)(F)C1` [Compound 41]: > 30 µM. As to `CN(C)c1c(C(=O)N[C@H]2CCOc3ccccc32)cnc2c(-c3cc(F)cc(F)c3)csc12` [Compound 51], the EC50 is > 30 µM. The result for `Cc1sc2c(N3CC(F)C3)c(C(=O)N[C@H]3CCCc4ccccc43)cnc2c1-c1cccc(Cl)c1Cl` [Compound 61] reads > 30 µM; that for `C[C@H](NC(=O)c1cnc2c(-c3cccc(Cl)c3Cl)csc2c1N1CCOCC1)c1ccccc1` [Compound 5], > 30 µM; that for `CN(C)c1c(C(=O)N[C@H]2CCOc3ccccc32)cnc2c(-c3cccc(F)c3F)csc12` [Compound 46], > 30 µM. The result for `O=C(N[C@H]1CCCc2ccccc21)c1cnc2c(-c3cc(Cl)cc(Cl)c3)csc2c1N1CCOCC1` [Compound 32] reads > 30 µM; that for `COCCNc1c(C(=O)N[C@H]2CCOc3ccccc32)cnc2c(-c3cc(F)cc(F)c3F)csc12` [Compound 82], > 30 µM.

Consider `O=C(N[C@H]1CCOc2ccccc21)c1cnc2c(-c3cccc(F)c3F)csc2c1NC1CC1` [Compound 87], for which the EC50 was > 30 µM. Next, `CN(C)c1c(C(=O)NC2CCOc3ccccc32)cnc2c(-c3cccc(Cl)c3Cl)csc12` (centres unmarked) [Compound 28]: > 30 µM; `Cc1sc2c(N(C)C)c(C(=O)N[C@H]3CCOc4ccccc43)cnc2c1-c1cc(F)cc(F)c1` [Compound 103]: > 30 µM. Next, `Cc1sc2c(N3CCOCC3)c(C(=O)N[C@H]3CCOc4ccccc43)cnc2c1-c1cccc(C(F)(F)F)c1` [Compound 108]: > 30 µM. On to `O=C(N[C@H]1CCOc2ccccc21)c1cnc2c(-c3cccc(Cl)c3Cl)csc2c1N1CC(F)(F)C1` [Compound 26], for which the EC50 was > 30 µM. Next, `O=C(Nc1cccc2ccccc12)c1cnc2c(-c3cc(Cl)cc(Cl)c3)csc2c1N1CCOCC1` [Compound 49]: > 30 µM; `CN(C)c1c(C(=O)Nc2cccc3ccccc23)cnc2c(-c3cc(Cl)cc(Cl)c3)csc12` [Compound 50]: > 30 µM. Next, `Cc1sc2c(N3CCOCC3)c(C(=O)N[C@H]3CCc4ccccc43)cnc2c1-c1cccc(C(F)(F)F)c1` [Compound 112]: > 30 µM; `O=C(N[C@H]1CCc2ccccc21)c1cnc2c(-c3cc(F)cc(F)c3F)csc2c1N1CCOCC1` [Compound 16]: > 30 µM; `CN1CCN(c2c(C(=O)N[C@H]3CCOc4ccccc43)cnc3c(-c4cc(Cl)cc(Cl)c4)csc23)CC1` [Compound 19]: > 30 µM.

As for `O=C(N[C@H]1CCOc2ccccc21)c1cnc2c(-c3cccc(Cl)c3Cl)csc2c1N1CCOCC1` [Compound 4, (S)—N-(chroman-4-yl)-3-(2,3-dichlorophenyl)-7-morpholinothieno[3,2-b]pyridine-6-carboxamide], the EC50 fell in the range of 5 to 10 µM. The result for `C[C@H](NC(=O)c1cnc2c(-c3cc(Cl)cc(Cl)c3)csc2c1N1CCOCC1)c1ccccc1` [Compound 2] reads > 30 µM; that for `Cc1sc2c(N3CC(F)(F)C3)c(C(=O)N[C@H]3CCCc4ccccc43)cnc2c1-c1cc(Cl)cc(Cl)c1` [Compound 58], > 30 µM; that for `CN1CCN(c2c(C(=O)NC3CCOc4ccccc43)cnc3c(-c4cccc(Cl)c4Cl)csc23)CC1` (centres unmarked) [Compound 20], > 30 µM. Take `Cc1sc2c(N3CCOCC3)c(C(=O)N[C@H]3CCOc4ccccc43)cnc2c1-c1cc(F)cc(F)c1F` [Compound 106]: the EC50 is > 30 µM. Next, `CN(C)c1c(C(=O)N[C@H]2CCc3ccccc32)cnc2c(-c3cc(Cl)cc(Cl)c3)csc12` [Compound 9]: > 30 µM.

Take `O=C(N[C@H]1CCOc2ccccc21)c1cnc2c(-c3cc(F)cc(F)c3F)csc2c1NC1CC1` [Compound 88]: the EC50 was > 30 µM. The result for `C[C@H](NC(=O)c1cnc2c(-c3cc(Cl)cc(Cl)c3)csc2c1N(C)C)c1ccccc1` [Compound 8] reads > 30 µM. With `CN(C)c1c(C(=O)N[C@H]2CCc3ccccc32)cnc2c(-c3cccc(Cl)c3Cl)csc12` [Compound 12], the EC50 is > 30 µM. Next, `Cc1sc2c(N(C)C)c(C(=O)Nc3cccc4ccccc34)cnc2c1-c1cccc(Cl)c1Cl` [Compound 37]: > 30 µM. Next, `O=C(N[C@H]1CCOc2ccccc21)c1cnc2c(-c3cc(F)cc(F)c3)csc2c1N1CCOCC1` [Compound 45]: > 30 µM.

Regarding `CN(C)c1c(C(=O)N[C@H]2CCOc3ccccc32)cnc2c(-c3cccc(OC(F)(F)F)c3)csc12` [Compound 97], the EC50 was > 30 µM.

Take `Cc1sc2c(N3CCOCC3)c(C(=O)N[C@H]3CCc4ccccc43)cnc2c1-c1cc(F)cc(F)c1F` [Compound 110]: the EC50 is > 30 µM. Next, `Cc1sc2c(N3CC(F)(F)C3)c(C(=O)N[C@H]3CCCc4ccccc43)cnc2c1-c1cccc(Cl)c1Cl` [Compound 55]: > 30 µM; `CN(C)c1c(C(=O)N[C@H]2CCOc3ccccc32)cnc2c(-c3cc(F)cc(F)c3F)csc12` [Compound 23]: > 30 µM. The result for `Cc1sc2c(N3CCOCC3)c(C(=O)N[C@H]3CCOc4ccccc43)cnc2c1-c1cccc(OC(F)(F)F)c1` [Compound 109] reads > 30 µM; that for `O=C(N[C@H]1CCOc2ccccc21)c1cnc2c(-c3cccc(C(F)(F)F)c3)csc2c1N1CC(F)C1` [Compound 93], > 30 µM.

Source of the values: patent publication US12703706B2, “Anthelmintic compounds comprising a thienopyridine structure” (Intervet Inc., priority 2020, dated 2026).
